# Measured values taken from US20110059909A1, “METHODS FOR TREATING INFLAMMATORY DISORDERS” (priority 2004, published 2011).
# How the values were obtained:
# [1] = cited from earlier work
# small GTPase Ras = test: Quantification of Ras activation (GST-Raf-1 RBD pull-down) in primary astrocytes; type: cell-based, rat; conditions: for LacCer-mediated Ras activation: NAC 10 mM or PDTC 100 μM 1 h, LacCer 5 min
# Description: After stimulation, primary astrocytes in 6-well plates were washed with ice cold PBS and lysed in membrane lysis buffer (MLB; 0.5 ml of 25 mM HEPES, pH 7.5, 150 mM NaCl, 1% Igepal CA-630, 0.25% sodium deoxycholate, 10% glycerol, 10 mM MgCl2, 1 mM EDTA, 25 mM NaF, 1 mM of sodium orthovanadate, and EDTA free Complete™ protease inhibitor cocktail). After centrifugation (5,000×g) at 4° C. for 5 min, supernatant was used for Ras activation assay. One hundred μg of supernatant was used for binding with agarose conjugated Ras-binding domain (RBD) of Raf-1 which was expressed in BL21 (Invitrogen), Escherichia coli strain, transformed by pGEX-2T-GST-RBD in the presence of 0.1 mM of IPTG as described previously (Herrmann et al., 1995). The binding reaction was performed at 4° C. for 30 min in MLB. Following washing with MLB three times, Ras-RBD complex were denatured by adding of 2×SDS sample buffer. Ras protein was identified by western blot analysis with Ras antibodies from Upstate Biotechnology.
# iNOS = iNOS mRNA (RT-PCR) and protein (immunoblot) in LPS/IFNγ-stimulated primary astrocytes; type: cell-based, rat; conditions: primary astrocytes; LPS/IFNγ (1 μg/ml; 10 U/ml); mRNA 6 h, protein 24 h
# Description: (§1) Primary astrocyte-enriched cultures were prepared from the whole cortex of one day old Sprague-Dawley rats as described earlier (Pahan et al., 1998b). Briefly, the cortex was rapidly dissected in ice-cold calcium/magnesium free Hanks Balanced Salt Solution (HBSS) (Gibco, Grand Island, N.Y.) at pH 7.4 as described previously (Won et al., 2001). The tissue was then minced, incubated in HBSS containing trypsin (2 mg/ml) for 20 min and washed twice in plating medium containing 10% FBS and 10 μg/ml gentamicin, and then disrupted by triturating through a Pasteur pipette following which cells were seeded in 75-cm^2 culture flasks (Falcon, Franklin, N.J.). After incubation at 37° C. in 5% CO2 for 1 day, the medium was completely changed to the culture medium (DMEM containing 5% FBS and 10 μg/ml gentamicin). The cultures received half exchanges with fresh medium twice a week. After 14-15 days the cells were shaken for at least 24 h on an orbital shaker to remove the microglia and then seeded on multi-well tissue culture dishes. The cells were incubated with serum-free DMEM for 24 h prior to the incubation with drugs.
# (§2) For iNOS protein, the cells were washed with cold Tris buffered saline (TBS; 20 mM Trizma base, and 137 mM NaCl, pH 7.5), lysed in 1×SDS sample loading buffer (62.5 mM Trizma base, 2% w/v SDS, 10% glycerol), following sonication and centrifugation at 15,000×g for 5 min, the supernatant was used for the iNOS western immunoblot assay. The protein concentration of samples was determined with the detergent compatible protein assay reagent (Bio-Rad Laboratories, CA) using bovine serum albumin (BSA) as the standard. Sample was boiled for 3 min with 0.1 volumes of 10% β-mercaptoethanol and 0.5% bromophenol blue mix. Fifty μg of total cellular protein was resolved by electrophoresis on 8 or 12% polyacrylamide gels, electro-transferred to polyvinylidene difluoride (PVDF) filter and blocked with Tween 20 containing Tris-buffered saline (TBST; 10 mM Trizma base-pH 7.4, 1% Tween 20, and 150 mM NaCl) with 5% skim milk. After incubation with antiserum against iNOS (BD PharMingen, CA), rat GalT-2 (Abjent Inc., CA), H-Ras (Upstate Biotechnology, CA), GFAP (Santa Cruz Biotech, CA), or phospho-specific ERK1/2 (Cell signaling Tech Inc., MA), or pIκ-B (Signal Transduction), in PVDF buffer for 2 h at room temperature, the filters were washed 3 times with TBST buffer and then incubated with horseradish peroxidase conjugated anti-rabbit or mouse IgG for 1 h. The membranes were detected by autoradiography using ECL-plus (Amersham Pharmacia Biotech) after washing with TBST buffer.
# 5 μg total RNA was treated with 2 U DNAse I (bovine pancreas, Sigma) for 15 min at room temperature in 18 μl volume containing 1×PCR buffer and 2 mM MgCl2. It was then inactivated by incubation with 2 μl of 25 mM EDTA at 65° C. for 15 min. 2 μl of random primers were added and annealed to the RNA according to the manufacturer's protocol. cDNA was synthesized in a 50 μl reaction containing 5 μg of total RNA and 50-100 U reverse transcriptase by incubating the tubes at 42° C. for 60 min. PCR amplification was conducted in 25 μl of reaction mixture with 1.0 μl of cDNA, […] of each primer and under the manufacturer's Taq polymerase conditions (Takara, Takara Shuzo Co. Ltd, Japan). The sequence of primers used for PCR amplification are as follows; iNOS, (Forward-5′ […] 3′, SEQ ID NO:3; Reverse-5′ […] 3′, SEQ ID NO:4), GalT-2 (Forward-5′ tggtacaagctagaggc 3′, SEQ ID NO:5; Reverse-5′ gcatggcacattgaa C-3′, SEQ ID NO:6), GAPDH (Forward-5′ […] 3′, SEQ ID NO:7; Reverse-5′ cttcacgaagttgtcattgagggca3′, SEQ ID NO:8), TNFα (Forward-5′ […] g-3′, SEQ ID NO:9; Reverse-5′[…]-3′, SEQ ID NO:10) and IL-1β (Forward-5′[…]-3′, SEQ ID NO:11; reverse-5′[…]-3′, SEQ ID NO:12).
# rat primary astrocytes [2] = test: Assay for NO production (nitrite, Griess reagent) in LPS/IFNγ-stimulated primary astrocytes; type: cell-based; conditions: for LPS/IFNγ-induced NO production: primary astrocytes, LPS/IFNγ (1 μg/ml; 10 U/ml), NO at 24 h; for Reversal of PDMP-mediated inhibition of LPS/IFNγ-induced NO production: PDMP 50 μM plus exogenous glycosphingolipid 5 and 10 μM, 0.5 h before LPS/IFNγ
# Description: as §1
# Cells were cultured in 12-well plastic tissue culture plates. Following appropriate treatment, production of NO was determined by an assay of the culture supernatant for nitrite (Green et al., 1982). Briefly, 100 μl of culture supernatant was allowed to react with 100 μl of Griess reagent. The optical density of the assay samples was measured spectrophotometrically at 570 nm. Nitrite concentrations were calculated from a standard curve derived from the reaction of NaNO2 in fresh media.
# GFAP = GFAP mRNA (real time PCR) and protein (immunoblot) in TNFα-stimulated primary astrocytes; type: cell-based, rat
# Description: as §2
# ERK1/2 = ERK1/2 activation (phospho-ERK1/2 immunoblot) in primary astrocytes; type: cell-based, rat; conditions: pretreated 0.5 h, TNFα 20 min
# Description: as §2
# rat primary astrocytes [3] = test: BrdU incorporation assay, proliferation of primary astrocytes; type: cell-based; conditions: for Proliferation of astrocytes induced by the substance itself: increasing doses (1, 5 and 10 μM for GSL), 18 h
# Description: as §1
# Proliferation of primary astrocytes was assayed by using the Cell proliferation ELISA, BrdU colorimetric assay kit (Roche, Germany) according to manufacturer's protocol. Briefly, cells were seeded in 96 well plates in quadruplicate and following overnight serum starvation were stimulated with mitogenic stimulants. 2 h before termination of proliferation assay, BrdU (10 μM) was added to each well following which cells were fixed and levels of incorporated BrdU were assayed by using a conjugated anti-BrdU enzyme. Colorimetric analysis was done by measuring absorbance at 370 nm using a spectramax MAX 190 (Molecular devices) multi-well plate reading spectrophotometer.
# PI-3K = test: PI-3 kinase activity assay; type: cell-based, rat; conditions: exogenous lipid
# Description: Cells after stimulation in serum-free DMEM/F-12 were lysed with ice-cold lysis buffer containing 1% (vol/vol) NP-40,100 mM NaCl, 20 mM Tris (pH 7.4), 10 mM iodoacetamide, 10 mM NaF, 1 mM sodium orthovanadate, 1 mM […], 1 μg/ml leupeptin, 1 μg/ml antipain, 1 mg/ml aprotinin, and 1 μg/ml pepstatin A. Lysates were incubated at 4° C. for 15 min, followed by centrifugation at 13,000 g for 15 min. The supernatant was pre-cleared with protein G-Sepharose beads (Pharmacia Biotech) for 1 h at 4° C. followed by the addition of 1 μg/ml p85α monoclonal antibody. After 2 h of incubation at 4° C., protein G-Sepharose beads were added and the resulting mixture was further incubated for 1 h at 4° C. The immunoprecipitates were washed twice with lysis buffer, once with phosphate-buffered saline (PBS), once with 0.5 M LiCl and 100 mM Tris (pH 7.6), once in water, and once in kinase buffer (5 mM MgCl2, 0.25 mM EDTA, 20 mM HEPES, pH 7.4). PI-3kinase activity was determined as already described (Ward et al., 1992; Pahan et al., 1999) using a lipid mixture of 100 μl of 0.1 mg/ml PI and 0.1 mg/ml phosphatidylserine dispersed by sonication in 20 mM HEPES (pH 7.0) and 1 mM EDTA. The reaction was initiated by the addition of 20 of [γ-32P] […]
compound,measurement,setting,value
"CCCCN1CC(O)C(O)C(O)C1CO [Miglustat, 1,5-(butylimino)-1,5-dideoxy-D-glucitol]",Solubility in water,[1],soluble in water
"CC(=O)N[C@@H](CS)C(=O)O [NAC, N-Acetyl cysteine]",LacCer-mediated Ras activation,small GTPase Ras,inhibited
same,LPS/IFNγ-induced iNOS mRNA and protein levels,iNOS,blocked
same,LPS/IFNγ-induced NO production,rat primary astrocytes [2],blocked
COc1cccc(-c2cc(=O)c3ccccc3o2)c1N [PD98059],TNFα-induced GFAP mRNA and protein expression,"GFAP; TNFα 1 ng/ml, mRNA 8 h, protein 18 h",inhibited
same,TNFα-induced ERK1/2 phosphorylation,ERK1/2,inhibited
same,LPS/IFNγ-induced iNOS mRNA and protein levels,iNOS,inhibition
same,LPS/IFNγ-induced NO production,rat primary astrocytes [2],inhibition
same,TNFα-induced astrocyte proliferation,"rat primary astrocytes [3]; pretreated 0.5 h (AS: 48 h after transfection), TNFα 1 ng/ml 18 h, BrdU incorporation",inhibited
"S=C(S)N1CCCC1 [PDTC, pyrrolidine dithiocarbamate]",LacCer-mediated Ras activation,small GTPase Ras,inhibited
same,LPS/IFNγ-induced iNOS mRNA and protein levels,iNOS,blocked
same,LPS/IFNγ-induced NO production,rat primary astrocytes [2],blocked
"CCCCCCCCCCCCC/C=C/[C@@H](O)[C@@H](N)COP(=O)(O)O [S1P, sphingosine-1-phosphate]",Reversal of DMS-mediated inhibition of TNFα-induced GFAP expression,GFAP; exogenous lipid,reversed
same,Reversal of DMS-mediated inhibition of Ras activation,small GTPase Ras; exogenous lipid,reverses
same,Reversal of DMS-mediated inhibition of PI-3K activation,PI-3K,able to reverse
same,Reversal of PDMP-mediated inhibition of TNFα-induced proliferation,rat primary astrocytes [3]; PDMP 25 μM plus exogenous lipid,could not be reversed
same,Reversal of DMS-mediated inhibition of TNFα-induced proliferation,rat primary astrocytes [3]; exogenous lipid,reversed
same,Reversal of PD98059-mediated inhibition of TNFα-induced proliferation,rat primary astrocytes [3]; exogenous lipid,could not be reversed
same,Proliferation of astrocytes induced by the substance itself,rat primary astrocytes [3]; BrdU incorporation,induced astrocyte proliferation
Glucosylceramide [GluCer],Reversal of PDMP-mediated inhibition of LPS/IFNγ-induced NO production,rat primary astrocytes [2],did not reverse
same,Proliferation of astrocytes induced by the substance itself,rat primary astrocytes [3]; BrdU incorporation,did not have a similar effect
galactosylceramide [GalCer],Reversal of PDMP-mediated inhibition of LPS/IFNγ-induced NO production,rat primary astrocytes [2],did not reverse
same,Proliferation of astrocytes induced by the substance itself,rat primary astrocytes [3]; BrdU incorporation,neither induced proliferation
